We go through 13 compounds from ChEMBL document CHEMBL1201862, “PubChem BioAssay data set” (2004).

Test in all cases: growth of human tumour cells (NCI), 48 h
The subject of experiment [1] is SK-OV-3.
Experiment [2] has as its system HOP-62.
The test system of experiment [3] is NCI-H23.
For experiment [4], the system named is CCRF-CEM.
For experiment [5], the system named is HOP-92.
Experiment [6] has as its system A549.
Experiment [7] deals with NCI-H460.
The test system of experiment [8] is IGROV-1.
The test system of experiment [9] is SF-268.
Experiment [10] deals with HCT-15.
For experiment [11], the system named is RPMI-8226.
The subject of experiment [12] is SR.
For experiment [13], the system named is OVCAR-8.
In experiment [14] the test system is OVCAR-4.
Experiment [15] relates to SF-539.
Experiment [16] has as its system HCC 2998.
In experiment [17] the test system is A498.
Experiment [18] relates to SNB-75.
The subject of experiment [19] is T47D.

Structures are written as SMILES.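 96-well plates; 48 h exposure; 5 concentrations. Endpoints by linear interpolation between flanking doses. Not reached: highest tested concentration assigned. GI50: concentration for 50% inhibition of growth.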 Active and inactive are the calls of the source. Cut-off read from the data, not from the text of the source: active = GI50 up to about 1.1 µM and inactive = higher. Some results are limits rather than exact numbers.

Consider `CCCCCCCCCCCCCCCc1nnc(SCC(=O)O)[nH]1`, for which the GI50 was 45.4 µM (inactive) in experiment [1]; > 100 µM (inactive) in experiment [2]; > 100 µM (inactive) in [3]; 24.2 µM (inactive) in experiment [4]; 32.1 µM (inactive) in [5]; 79.1 µM (inactive) in experiment [6]. The GI50 in experiment [7] is > 100 µM (inactive); in [8], 36.1 µM (inactive); in experiment [9] it was 42 µM (inactive); in experiment [10], 31.6 µM; in experiment [11] it was 78.2 µM (inactive); in experiment [12], 60 µM (inactive). In addition, the GI50 in experiment [13] was 40.8 µM (inactive); in experiment [14] it was 45.7 µM (inactive); in experiment [15], 48 µM (inactive); in experiment [16], 43.9 µM (inactive).

`CCOC(=O)Cc1c(C)c2cc(C(=O)c3ccccc3)c(O)cc2oc1=O`: the GI50 was 35.6 µM (inactive) in [2]; 19.3 µM (inactive) in experiment [3]; 25.3 µM (inactive) in experiment [17]; 30.4 µM (inactive) in [18]; 31.1 µM (inactive) in experiment [4]; 21.6 µM (inactive) in experiment [5]. For the same compound, the GI50 was 25.8 µM (inactive) in [6]; 28.2 µM (inactive) in experiment [19]; 33.3 µM (inactive) in [7]; 39.6 µM (inactive) in experiment [8]; 24.9 µM (inactive) in [9]; 29.4 µM in experiment [10]. Also, the GI50 in experiment [11] was 29.3 µM (inactive); in experiment [13], 34.1 µM (inactive); in experiment [14], 31.8 µM (inactive); in [15], 20.4 µM (inactive); in [16] it was 32.6 µM (inactive).

Take `COc1cc(O)c2c(=O)c(OC)c(-c3ccc4c(c3)OCO4)oc2c1OC`: the GI50 was 21.7 µM (inactive) in experiment [1]; 21.8 µM (inactive) in experiment [2]; > 50 µM (inactive) in experiment [3]; > 50 µM (inactive) in [17]; 11.6 µM (inactive) in experiment [18]; > 50 µM (inactive) in experiment [4]. For the same compound, the GI50 is 7.6 µM (inactive) in experiment [5]; > 50 µM (inactive) in [6]; > 50 µM (inactive) in [19]; > 50 µM (inactive) in [7]; > 50 µM (inactive) in experiment [8]; 21.7 µM (inactive) in experiment [9]. The GI50 in experiment [10] was over 50 µM; in [13] it was 19.1 µM (inactive); in experiment [14], > 50 µM (inactive); in experiment [15] it was 18.5 µM (inactive); in experiment [16] it was > 50 µM (inactive).

On to `COC(=O)c1ccc2c(c1)sc1nc(-c3ccc(OC)cc3)cn12`, for which the GI50 was > 100 µM (inactive) in [1]; > 100 µM (inactive) in experiment [2]; > 100 µM (inactive) in [3]; > 100 µM (inactive) in [17]; 34.8 µM (inactive) in experiment [18]; 39.9 µM (inactive) in [4]. The GI50 in experiment [5] is 24.7 µM (inactive); in [6], > 100 µM (inactive); in experiment [19], 35.2 µM (inactive); in [7], > 100 µM (inactive); in experiment [8], 48.2 µM (inactive); in experiment [9], 83.8 µM (inactive). For the same compound, the GI50 was over 100 µM in experiment [10]; 32.4 µM (inactive) in [11]; 91.4 µM (inactive) in [13]; > 100 µM (inactive) in experiment [14]; 59.8 µM (inactive) in [15]; > 100 µM (inactive) in [16].

Turning to `CC1(O)CCC2(C)C(=O)C1(C)CCC21OCCO1` (stereo not given), the GI50 in experiment [1], in experiment [3], in experiment [4], in experiment [5], in [6] and in experiment [7] was > 100 µM (inactive) throughout. Moreover, the GI50 was > 100 µM (inactive) in [8]; > 100 µM (inactive) in [9]; over 100 µM in experiment [10]; > 100 µM (inactive) in experiment [11]; > 100 µM (inactive) in experiment [12]; > 100 µM (inactive) in experiment [13]. Besides, the GI50 in experiment [15] and in [16] was > 100 µM (inactive) throughout.

Take `COC(=O)Cc1c([C@@]2(C)CCCC(C)(C)C2)ccc2c1C(=O)OC2`: the GI50 was 14 µM (inactive) in experiment [1]; 9.35 µM (inactive) in experiment [3]; 25.5 µM (inactive) in [17]; 14.3 µM (inactive) in experiment [18]; 6.49 µM (inactive) in experiment [4]; 3.01 µM (inactive) in experiment [5]. In addition, the GI50 is 9.84 µM (inactive) in experiment [6]; 8.83 µM (inactive) in experiment [7]; 15 µM (inactive) in experiment [8]; 6.44 µM in experiment [10]; 2.7 µM (inactive) in experiment [11]; 15.3 µM (inactive) in experiment [13]. For the same compound, the GI50 in [15] is 15.6 µM (inactive).

For `O=C1NC(=S)NC(=O)C1C(c1ccc([N+](=O)[O-])cc1)C1C(=O)NC(=S)NC1=O.c1ccncc1`, the GI50 in experiment [2], in [3], in experiment [17], in experiment [4], in [5] and in [6] was > 100 µM (inactive) each time. Also, the GI50 in experiment [19] was > 100 µM (inactive); in experiment [7], > 100 µM (inactive); in experiment [8] it was > 100 µM (inactive); in experiment [10], over 100 µM; in experiment [11] it was > 100 µM (inactive); in [13] it was > 100 µM (inactive). The GI50 in [14] is > 100 µM (inactive).

As to `CCOC(=O)C1=CC(C)(C(=O)OCC)Nc2c(nc(SC)[nH]c2=O)N1` (stereo not given), the GI50 in [1], in experiment [2], in [3], in experiment [17], in experiment [18] and in experiment [4] was > 10 µM (inactive) throughout. Also, the GI50 in experiment [5], in experiment [6], in [19], in experiment [7], in [8] and in experiment [9] was > 10 µM (inactive) in each case. The GI50 in [10] was over 10 µM; in experiment [11], > 10 µM (inactive); in experiment [13], > 10 µM (inactive); in [14], > 10 µM (inactive); in [15], > 10 µM (inactive); in experiment [16], > 10 µM (inactive).

Regarding `C=C1c2nc3ccccc3n2C=C(c2ccccc2)N1c1ccc(C)cc1`, the GI50 is > 100 µM (inactive) in experiment [1]; 58.6 µM (inactive) in experiment [3]; 52.7 µM (inactive) in experiment [17]; > 100 µM (inactive) in experiment [18]; 55.6 µM (inactive) in [4]; 41.4 µM (inactive) in experiment [5]. The GI50 in [6] was > 100 µM (inactive); in experiment [7], 56.6 µM (inactive); in experiment [8], > 100 µM (inactive); in experiment [10], 35.4 µM; in experiment [11] it was 19.5 µM (inactive); in experiment [12] it was 10.3 µM (inactive). Also, the GI50 in [13] was 48.5 µM (inactive); in experiment [14] it was 71.8 µM (inactive); in experiment [15], 63.8 µM (inactive); in experiment [16], 9.31 µM (inactive).

Regarding `CN1CCN(c2ccncc2S(=O)(=O)N2CCN(C)CC2)CC1`, the GI50 in [1], in experiment [2], in [3], in experiment [17], in experiment [18] and in experiment [5] was > 100 µM (inactive) throughout. The GI50 in experiment [6] is > 100 µM (inactive); in [19] it was > 100 µM (inactive); in experiment [7], > 100 µM (inactive); in experiment [8], > 100 µM (inactive); in experiment [9], > 100 µM (inactive); in experiment [10] it was over 100 µM. For the same compound, the GI50 in experiment [11], in [13], in experiment [14] and in experiment [15] was > 100 µM (inactive) in each case.

As for `O=C1Cc2c([nH]c3ccc(Br)cc23)-c2cc(O)c(O)cc2N1`, the GI50 in [1], in [2], in [3], in [17], in experiment [18] and in experiment [5] was > 100 µM (inactive) each time. The GI50 in experiment [6] was > 100 µM (inactive); in experiment [19], > 100 µM (inactive); in [7] it was > 100 µM (inactive); in experiment [9] it was > 100 µM (inactive); in experiment [10] it was over 100 µM; in [11] it was > 100 µM (inactive). Moreover, the GI50 in experiment [13], in experiment [14] and in [16] was > 100 µM (inactive) in each case.

For the compound `c1cc(-c2ccc(-c3ccc(-c4ccc(-c5cccc6nsnc56)[nH]4)c4nsnc34)[nH]2)c2nsnc2c1`, the GI50 in experiment [1], in [2], in experiment [3], in experiment [18], in experiment [4] and in experiment [5] was > 100 µM (inactive) in each case. Also, the GI50 was > 100 µM (inactive) in experiment [6]; > 100 µM (inactive) in [19]; > 100 µM (inactive) in [7]; > 100 µM (inactive) in experiment [8]; > 100 µM (inactive) in experiment [9]; over 100 µM in experiment [10]. For the same compound, the GI50 in experiment [11], in experiment [13], in experiment [14] and in experiment [16] was > 100 µM (inactive) each time.

As for `CCCCS/C(=C(/C#N)C(N)=O)c1cc2c([nH]1)CCCC2`, the GI50 in experiment [1] was 22.9 µM (inactive); in experiment [2] it was 21.9 µM (inactive); in [3], 16.7 µM (inactive); in experiment [17] it was 17.6 µM (inactive); in experiment [18], 15.3 µM (inactive); in [4], 6.7 µM (inactive). Besides, the GI50 in [5] was 17.1 µM (inactive); in experiment [6], 21.9 µM (inactive); in experiment [7], 18.7 µM (inactive); in [9] it was 13.8 µM (inactive); in experiment [10], 9.71 µM; in experiment [11] it was 6.71 µM (inactive). Besides, the GI50 in experiment [13] is 15.6 µM (inactive); in experiment [14], 16.1 µM (inactive); in experiment [15], 14.7 µM (inactive); in experiment [16], 11.4 µM (inactive).
